Data on three compounds can be found in ChEMBL document CHEMBL1201862, “PubChem BioAssay data set” (2004).

A word on the IC50: it is the concentration that inhibits the measured activity by half.

Calls of active or inactive are those of the source. No stated cut-off is given here; in the data, actives have a measured IC50 and inactives only a lower limit.

Envelope glycoprotein gp160, sequence (Q6QLK5 whole entry, the tested form may be a part): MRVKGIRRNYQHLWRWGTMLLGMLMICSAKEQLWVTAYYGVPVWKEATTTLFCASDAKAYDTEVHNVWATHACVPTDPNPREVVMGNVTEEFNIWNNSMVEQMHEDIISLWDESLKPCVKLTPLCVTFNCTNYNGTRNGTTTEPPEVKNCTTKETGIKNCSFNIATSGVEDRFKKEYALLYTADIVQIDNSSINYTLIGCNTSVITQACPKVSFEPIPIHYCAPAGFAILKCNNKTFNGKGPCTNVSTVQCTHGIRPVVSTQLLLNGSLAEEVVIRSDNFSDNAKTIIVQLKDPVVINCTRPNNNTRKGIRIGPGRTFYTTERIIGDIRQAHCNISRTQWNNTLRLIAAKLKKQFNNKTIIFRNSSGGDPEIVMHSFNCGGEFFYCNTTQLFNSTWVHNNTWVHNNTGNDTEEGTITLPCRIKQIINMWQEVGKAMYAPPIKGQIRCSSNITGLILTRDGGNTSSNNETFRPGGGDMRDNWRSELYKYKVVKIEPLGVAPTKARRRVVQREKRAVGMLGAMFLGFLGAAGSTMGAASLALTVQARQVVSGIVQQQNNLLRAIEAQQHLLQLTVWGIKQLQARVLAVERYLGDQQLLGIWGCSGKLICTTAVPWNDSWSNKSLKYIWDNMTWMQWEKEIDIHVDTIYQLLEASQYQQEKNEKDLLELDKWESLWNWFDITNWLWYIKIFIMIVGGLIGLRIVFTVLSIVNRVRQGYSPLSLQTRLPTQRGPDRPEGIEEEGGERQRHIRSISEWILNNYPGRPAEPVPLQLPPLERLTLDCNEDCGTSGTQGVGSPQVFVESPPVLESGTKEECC

The experiment has as its target Envelope glycoprotein gp160 (Human immunodeficiency virus 1, UniProt Q6QLK5). The experiment is described as follows: cell-free HIV fusion peptide-binding blockers – biochemical, uHTS, fluorescence dequenching, […] (AID 1986).
As for `COc1cc(/C=C(\C#N)c2nc3cc(C)ccc3[nH]2)cc([N+](=O)[O-])c1O`, the half-maximal inhibitory concentration (IC50) was 18.7 µM (active). Consider `CCc1ccc(/C=C2\SC(=S)N(CCCC(=O)Nc3ccccc3C(=O)O)C2=O)cc1`, for which the half-inhibitory concentration (IC50) is 12.4 µM (active).

`CCOc1ccc(C2C(C(=O)Nc3ccccc3)=C(C)N=c3s/c(=C/c4cccc(OCC(=O)O)c4)c(=O)n32)cc1` (stereo not drawn): the half-inhibitory concentration (IC50) is 28.8 µM (active).
